Test results: BindingDB's records for PubMed 8100350 (University of Pennsylvania, 1993)
Where a SMILES comes first, the peptide text is derived from it. [ ]: non-standard residue; d: D form. The star is where a group is joined. Phe(4-Cl) = N[C@@H](Cc1ccc(Cl)cc1)C(=O)O; d2Nal = N[C@H](Cc1ccc2ccccc2c1)C(=O)O; Aoc = NCCCCCCCC(=O)O; Bn = c1ccc(C*)cc1

Experiments:
[1] = biological target: Somatostatin receptor type 1 (Homo sapiens, UniProt P30872)
[2] = biological target: Somatostatin receptor type 2 (Mus musculus, UniProt P30875)
Sequence of Somatostatin receptor type 2 (P30875 whole entry): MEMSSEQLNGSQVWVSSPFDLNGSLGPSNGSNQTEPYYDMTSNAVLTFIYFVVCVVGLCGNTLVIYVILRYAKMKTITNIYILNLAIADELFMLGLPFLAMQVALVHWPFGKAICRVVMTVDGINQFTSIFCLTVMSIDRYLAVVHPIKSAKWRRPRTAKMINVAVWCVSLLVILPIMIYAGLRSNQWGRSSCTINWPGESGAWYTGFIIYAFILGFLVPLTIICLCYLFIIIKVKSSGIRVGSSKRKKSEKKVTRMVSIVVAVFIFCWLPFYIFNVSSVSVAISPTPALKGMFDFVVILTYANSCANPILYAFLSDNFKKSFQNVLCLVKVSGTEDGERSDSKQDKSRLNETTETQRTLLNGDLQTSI

[3] = biological target: Somatostatin receptor type 3 (Mus musculus, UniProt P30935)
Sequence of Somatostatin receptor type 3 (P30935 whole entry): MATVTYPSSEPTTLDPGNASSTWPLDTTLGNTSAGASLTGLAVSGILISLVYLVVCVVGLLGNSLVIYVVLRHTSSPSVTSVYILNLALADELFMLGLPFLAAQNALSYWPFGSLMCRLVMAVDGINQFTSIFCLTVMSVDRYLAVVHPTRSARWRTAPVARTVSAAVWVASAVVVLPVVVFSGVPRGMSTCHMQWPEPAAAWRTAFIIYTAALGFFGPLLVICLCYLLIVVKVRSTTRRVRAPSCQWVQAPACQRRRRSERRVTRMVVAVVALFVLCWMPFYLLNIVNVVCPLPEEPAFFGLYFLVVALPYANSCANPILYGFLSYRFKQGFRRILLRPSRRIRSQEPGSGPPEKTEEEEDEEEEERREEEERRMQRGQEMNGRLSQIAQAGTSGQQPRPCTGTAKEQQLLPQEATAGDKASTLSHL

Sequence of Somatostatin receptor type 1 (P30872 whole entry): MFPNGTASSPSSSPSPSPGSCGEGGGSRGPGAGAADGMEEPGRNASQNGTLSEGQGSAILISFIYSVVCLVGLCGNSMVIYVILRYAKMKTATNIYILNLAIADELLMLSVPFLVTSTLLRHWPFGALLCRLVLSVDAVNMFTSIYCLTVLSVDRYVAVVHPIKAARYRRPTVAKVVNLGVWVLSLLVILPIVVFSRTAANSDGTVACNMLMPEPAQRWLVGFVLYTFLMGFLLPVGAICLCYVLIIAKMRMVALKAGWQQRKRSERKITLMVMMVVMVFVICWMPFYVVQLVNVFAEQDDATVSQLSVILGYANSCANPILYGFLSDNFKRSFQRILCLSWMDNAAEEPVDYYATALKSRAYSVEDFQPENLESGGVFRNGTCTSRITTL

Row | SMILES | Ki [1] | Ki [2] | Ki [3]
1 | C[C@@H](O)[C@H](NC(=O)[C@H](Cc1ccccc1)NC(=O)[C@@H](NC(=O)[C@H](CCCCN)NC(=O)[C@@H](Cc1c[nH]c2ccccc12)NC(=O)[C@H](Cc1ccc(O)cc1)NC(=O)[C@H](Cc1ccc(Cl)cc1)NC(=O)[C@H](N)Cc1ccc2ccccc2c1)[C@@H](C)O)C(N)=O [CAS_150155-63-8] (H-[d2Nal][Phe(4-Cl)]Y[dW]KTFT-NH2) | 1000 nM | 40 nM | 11 nM
2 | CC(C)[C@@H]1NC(=O)[C@H](CCCCN)NC(=O)[C@@H](Cc2c[nH]c3ccccc23)NC(=O)[C@H](Cc2ccc(O)cc2)NC(=O)[C@@H](NC(=O)[C@H](N)Cc2ccc3ccccc3c2)CSSC[C@@H](C(=O)N[C@H](C(N)=O)[C@@H](C)O)NC1=O [3-(2-Naphtyl)-D-Ala-L-Cys(1)-L-Tyr-D-Trp-L-Lys-L-Val-L-Cys(1)-L-Thr-NH2] | 789 nM | 1.6 nM | 5.6 nM
3 | CC(C)[C@H](NC(=O)[C@H](CCCCN)NC(=O)[C@@H](Cc1c[nH]c2ccccc12)NC(=O)[C@H](Cc1ccc(O)cc1)NC(=O)[C@H](Cc1ccccc1)NC(=O)[C@H](N)Cc1ccccc1)C(=O)N[C@@H](Cc1ccccc1)C(=O)N[C@H](C(N)=O)[C@@H](C)O [BIM-23058] (H-[dF]FY[dW]KVFT-NH2) | 1000 nM | 46 nM | 0.04 nM

Other lines, results leading:

Row | Ki [1] | Ki [2] | Ki [3] | SMILES
4 | 700 nM | 1000 nM | 101 nM | C[C@@H](OCc1ccccc1)[C@@H]1NC(=O)[C@H](CCCCN)NC(=O)[C@@H](Cc2c[nH]c3ccccc23)NC(=O)[C@H](Cc2ccccc2)NC(=O)CCCCCCCNC1=O [c[Aoc-Phe-D-Trp-Lys-Thr(Bzl)]] (cyclo([Aoc]F[dW]KT(Bn)))
5 | 1000 nM | 86 nM | 10 nM | CC(C)[C@H](NC(=O)[C@H](CCCCN)NC(=O)[C@@H](Cc1c[nH]c2ccccc12)NC(=O)[C@H](Cc1ccc(O)cc1)NC(=O)[C@H](C)NC(=O)[C@H](N)Cc1ccc2ccccc2c1)C(=O)N[C@@H](C)C(=O)N[C@H](C(N)=O)[C@@H](C)O [D-Nal-Ala-Tyr-D-Trp-Lys-Val-Ala-Thr-NH2] (H-[d2Nal]AY[dW]KVAT-NH2)
6 | 1000 nM | 356 nM | 244 nM | C[C@@H]1NC(=O)[C@@H]2CCCN2C(=O)[C@H](Cc2ccccc2)NC(=O)[C@H]([C@@H](C)O)NC(=O)[C@H](CCCCN)NC(=O)[C@@H](Cc2c[nH]c3ccccc23)NC1=O [cyclo(Pro-Ala-Trp-Lys-Thr-Phe)] (cyclo(A[dW]KTFP))
7 | 1000 nM | 2.4 nM | 4.8 nM | CC(C)[C@H](NC(=O)[C@H](CCCCN)NC(=O)[C@@H](Cc1c[nH]c2ccccc12)NC(=O)[C@H](Cc1ccc(O)cc1)NC(=O)[C@H](Cc1ccc(Cl)cc1)NC(=O)[C@H](N)Cc1ccccc1)C(=O)N[C@@H](Cc1ccccc1)C(=O)N[C@H](C(N)=O)[C@@H](C)O [BIM 23057] (H-[dF][Phe(4-Cl)]Y[dW]KVFT-NH2)
